Experimental data: the NIST ThermoML archive (doi:10.1021/je030130y)

What was measured:
[1] = 101.3 kPa, Liquid; for viscosity: Capillary tube (Ostwald / Ubbelohde) method; for mass density: Pycnometric method
[2] = xn = mol fraction of the nth substance listed; details: 101.3 kPa, Liquid; for viscosity: Capillary tube (Ostwald / Ubbelohde) method; for mass density: Pycnometric method

c1ccccc1 [benzene]
[1]
Details | mass density [kg/m3] | viscosity [mPa·s]
298.15 K | 873.4 | 0.603
303.15 K | 868.2 | 0.568
308.15 K | 862.9 | 0.531
313.15 K | 857.4 | 0.5

c1ccccc1 [benzene] + CN(C)C=O
[2], x2 = 0
Details | mass density [kg/m3] | viscosity [mPa·s]
298.15 K | 873.4 | 0.603
303.15 K | 868.2 | 0.568
308.15 K | 862.9 | 0.531
313.15 K | 857.4 | 0.5

c1ccccc1 [benzene] + Clc1ccccc1
[2], x1 = 1
Details | mass density [kg/m3] | viscosity [mPa·s]
298.15 K | 873.4 | 0.603
303.15 K | 868.2 | 0.568
308.15 K | 862.9 | 0.531
313.15 K | 857.4 | 0.5

Clc1ccccc1 [chlorobenzene]
[1]
Details | mass density [kg/m3] | viscosity [mPa·s]
298.15 K | 1100.9 | 0.756
303.15 K | 1095.8 | 0.714
308.15 K | 1090.8 | 0.673
313.15 K | 1085.1 | 0.635

CN(C)C=O [dimethylformamide]
[1]
Details | mass density [kg/m3] | viscosity [mPa·s]
298.15 K | 944.5 | 0.803
303.15 K | 939.8 | 0.756
308.15 K | 935.1 | 0.71
313.15 K | 930.2 | 0.673

CN(C)C=O [dimethylformamide] + Clc1ccccc1
[2], x1 = 1
Details | mass density [kg/m3] | viscosity [mPa·s]
298.15 K | 944.5 | 0.803
303.15 K | 939.8 | 0.756
308.15 K | 935.1 | 0.71
313.15 K | 930.2 | 0.673
